From ChEMBL document CHEMBL1134077, “Synthesis of potent and selective dopamine D(4) antagonists as candidate radioligands” (Bioorg Med Chem Lett, 2001)

Columns and labels:
[1] = target: 5-hydroxytryptamine receptor 6 (Homo sapiens, UniProt P50406); experiment: In vitro binding affinity to human 5-hydroxytryptamine 6 receptor
[2] = target: T1, D(4) dopamine receptor (Rattus norvegicus, UniProt P30729); experiment: In vitro binding affinity to rat Dopamine receptor D4 measured by displacement of the radioligand [3H]spiperone
T1 sequence (P30729 whole entry): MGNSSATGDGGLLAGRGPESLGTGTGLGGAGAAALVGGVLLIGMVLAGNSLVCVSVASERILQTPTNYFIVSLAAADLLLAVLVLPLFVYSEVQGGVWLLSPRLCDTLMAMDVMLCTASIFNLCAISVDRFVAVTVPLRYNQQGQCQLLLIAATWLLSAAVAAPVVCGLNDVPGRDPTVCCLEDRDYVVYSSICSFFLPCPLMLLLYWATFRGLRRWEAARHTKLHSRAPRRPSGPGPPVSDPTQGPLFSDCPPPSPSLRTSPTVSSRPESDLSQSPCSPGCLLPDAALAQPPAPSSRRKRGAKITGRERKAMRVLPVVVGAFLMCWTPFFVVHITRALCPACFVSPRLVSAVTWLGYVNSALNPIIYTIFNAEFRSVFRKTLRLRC

[3] = target: 5-hydroxytryptamine receptor 7 (Homo sapiens, UniProt P34969); experiment: In vitro binding affinity to human 5-hydroxytryptamine 7 receptor
Sequence of 5-hydroxytryptamine receptor 7 (P34969 whole entry): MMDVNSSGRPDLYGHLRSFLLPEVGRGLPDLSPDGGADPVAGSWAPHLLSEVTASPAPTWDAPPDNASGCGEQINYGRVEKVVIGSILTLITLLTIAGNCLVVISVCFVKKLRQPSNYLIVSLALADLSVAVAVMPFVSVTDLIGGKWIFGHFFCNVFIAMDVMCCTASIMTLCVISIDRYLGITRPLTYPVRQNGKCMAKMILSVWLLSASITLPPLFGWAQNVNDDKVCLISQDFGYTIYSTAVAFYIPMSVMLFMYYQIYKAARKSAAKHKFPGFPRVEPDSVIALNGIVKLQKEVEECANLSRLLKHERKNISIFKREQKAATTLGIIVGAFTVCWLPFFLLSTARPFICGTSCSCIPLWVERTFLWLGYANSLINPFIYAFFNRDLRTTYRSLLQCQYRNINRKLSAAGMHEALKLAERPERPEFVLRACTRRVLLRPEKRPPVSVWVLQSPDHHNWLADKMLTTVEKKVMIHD

[4] = target: 5-hydroxytryptamine receptor 2A (Homo sapiens, UniProt P28223); experiment: Binding affinity to cloned human 5-hydroxytryptamine 2A receptor
Sequence of 5-hydroxytryptamine receptor 2A (P28223 whole entry): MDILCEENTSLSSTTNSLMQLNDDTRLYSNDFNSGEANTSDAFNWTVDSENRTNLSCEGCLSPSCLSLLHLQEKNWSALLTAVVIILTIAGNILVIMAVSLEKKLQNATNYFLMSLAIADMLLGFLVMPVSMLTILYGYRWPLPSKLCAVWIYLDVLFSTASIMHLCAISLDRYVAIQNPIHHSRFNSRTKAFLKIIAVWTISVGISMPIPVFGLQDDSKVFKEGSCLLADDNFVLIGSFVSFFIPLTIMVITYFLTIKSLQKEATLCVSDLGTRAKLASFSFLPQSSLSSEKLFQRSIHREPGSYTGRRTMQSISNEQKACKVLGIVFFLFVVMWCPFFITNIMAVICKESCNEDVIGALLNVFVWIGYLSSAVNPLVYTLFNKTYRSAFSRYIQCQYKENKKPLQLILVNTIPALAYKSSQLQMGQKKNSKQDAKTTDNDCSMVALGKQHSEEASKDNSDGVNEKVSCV

[5] = Binding affinity to cloned Nicotinic acetylcholine receptors; parameters: species or system Rattus norvegicus

Sequence of 5-hydroxytryptamine receptor 6 (P50406 whole entry): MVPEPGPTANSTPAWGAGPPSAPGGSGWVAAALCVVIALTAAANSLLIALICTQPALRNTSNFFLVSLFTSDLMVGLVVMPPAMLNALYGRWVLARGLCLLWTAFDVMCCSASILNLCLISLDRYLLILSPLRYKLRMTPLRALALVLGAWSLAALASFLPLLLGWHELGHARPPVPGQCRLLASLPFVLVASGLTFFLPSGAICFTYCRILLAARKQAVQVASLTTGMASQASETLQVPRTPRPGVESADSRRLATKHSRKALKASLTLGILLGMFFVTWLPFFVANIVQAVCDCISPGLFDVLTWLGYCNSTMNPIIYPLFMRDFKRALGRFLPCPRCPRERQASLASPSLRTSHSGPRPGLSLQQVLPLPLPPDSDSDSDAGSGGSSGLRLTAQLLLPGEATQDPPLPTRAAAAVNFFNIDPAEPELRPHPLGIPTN

Ki [5] [µM]	Structure (SMILES)	Ki [1] [µM]	Ki [2] [µM]	Ki [3] [µM]	Ki [4] [µM]
–	FC(F)(F)c1ccc(N2CCN(Cc3c[nH]c4ncccc34)CC2)cc1	7.11	0.0341	0.318	2.79
> 10	Clc1ccc(N2CCN(Cc3c[nH]c4ncccc34)CC2)cc1 [L-745870]	–	–	–	–
